The results in this text go back to patent publication US9796709B2, “5-hydroxy-4-(trifluoromethyl)pyrazolopyridine derivative” (Daiichi Sankyo Company, Limited, priority 2013, dated 2017).

SMILES strings stand for the structures.

For this assay, the target named is T1, LCAT (Homo sapiens, UniProt P04180).
T1 construct: The obtained fraction was dialyzed against phosphate-buffered saline (pH 7.4) and used as an enzyme source and an acceptor for LCAT; from tissue; host or cells: HDL3 fraction (1.125 < specific gravity < 1.210 g/mL) of plasma from a healthy person
T1 sequence (P04180 25-440): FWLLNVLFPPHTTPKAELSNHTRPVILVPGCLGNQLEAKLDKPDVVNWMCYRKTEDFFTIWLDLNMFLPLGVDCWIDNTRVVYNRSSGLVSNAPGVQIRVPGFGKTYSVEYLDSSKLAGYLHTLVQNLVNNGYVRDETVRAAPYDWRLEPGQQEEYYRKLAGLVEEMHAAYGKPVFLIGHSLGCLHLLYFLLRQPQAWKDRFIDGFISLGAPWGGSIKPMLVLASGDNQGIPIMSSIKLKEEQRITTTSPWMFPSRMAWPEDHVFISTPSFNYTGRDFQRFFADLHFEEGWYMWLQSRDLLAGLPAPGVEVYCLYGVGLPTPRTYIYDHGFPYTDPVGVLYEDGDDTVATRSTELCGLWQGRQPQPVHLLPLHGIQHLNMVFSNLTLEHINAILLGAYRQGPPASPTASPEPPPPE
Put plainly: LCAT activity measurement (in vitro), [14C]cholesterol esterification with HDL3 fraction. Conditions: HDL3 fraction from plasma of a healthy person as enzyme source and acceptor; 37° C., approximately 16 hours; relative to sample without test drug; read-out: EC50 of LCAT activation. Format: biochemical. How it is done: A fraction composed of HDL3 (1.125 <specific gravity <1.210 g/mL) was obtained from the plasma of a healthy person by density gradient centrifugation. The obtained fraction was dialyzed against phosphate-buffered saline (pH 7.4) and used as an enzyme source and an acceptor for LCAT. Each test drug was prepared by dissolution in dimethyl sulfoxide. [^14C]Cholesterol containing DTNB (Ellman's reagent, final concentration: 0.5 mM), mercaptoethanol (final concentration: 12.5 mM), and 0.6% bovine serum albumin was added to phosphate-buffered saline (pH 7.4) containing 1 mg/mL HDL3, and the test drug was further added thereto at varying concentrations to adjust the whole amount to 80 μL. This mixture was incubated at 37° C. for approximately 16 hours. Then, a mixed solution of hexane and isopropanol (mixing ratio=3:2) was added thereto to stop the reaction. After stirring, the hexane layer was collected, and this layer was evaporated to dryness. A chloroform solution (concentration: 10 mg/mL) was added thereto, and the mixture was spotted onto a thin-layer silica gel plate and developed using a mixed solution of hexane, diethyl ether, and ethyl acetate (mixing ratio=85:15:2). The radioactivity of a portion corresponding to cholesterol oleate was measured using an imaging analyzer BAS-2500 (manufactured by Fujifilm Corp.). A sample non-supplemented with the test drug was similarly treated and assayed. The EC50 value of LCAT activation was calculated according to the expression given below relative to LCAT activity in the sample non-supplemented with the test drug.
[formula] • wherein X represents the logarithm of the concentration of the test drug; • Y represents the responsiveness (LCAT activity) of the test drug; • Top represents the maximum value (maximum plateau); • Bottom represents the minimum value (minimum plateau); and • EC50 represents the 50% effective concentration.

As usually defined, the EC50 is the midpoint of the concentration-response curve. Consider `O=C1Nc2[nH]nc(C3CCN(c4ccc(C(F)(F)F)cn4)CC3)c2[C@@H](C(F)(F)F)[C@@H]1O` (racemic) [Example 1, trans-5-Hydroxy-4-(trifluoromethyl)-3-{1-[5-(trifluoromethyl)pyridin-2-yl]piperidin-4-yl}-1,4,5,7-tetrahydro-6H-pyrazolo[3,4-b]pyridin-6-one], for which the 50% effective concentration (EC50) came out at 0.88 µM.

As for `O=C1Nc2[nH]nc(C3CCN(c4ccc(C(F)(F)F)cn4)CC3)c2[C@@H](C(F)(F)F)[C@H]1O` (racemic) [Example 2, cis-5-Hydroxy-4-(trifluoromethyl)-3-{1-[5-(trifluoromethyl)pyridin-2-yl]piperidin-4-yl}-1,4,5,7-tetrahydro-6H-pyrazolo[3,4-b]pyridin-6-one], the half-maximal effective concentration (EC50) was 0.04 µM.

With `CC(C)Oc1ccc(N2CCC(c3n[nH]c4c3[C@@H](C(F)(F)F)[C@@H](O)C(=O)N4)CC2)nc1` (racemic) [Example 5, cis-5-Hydroxy-3-[1-(5-isopropoxypyridin-2-yl)piperidin-4-yl]-4-(trifluoromethyl)-1,4,5,7-tetrahydro-6H-pyrazolo[3,4-b]pyridin-6-one], the half-maximal effective concentration (EC50) worked out at 0.16 µM.

`O=C1Nc2[nH]nc(C3CCN(c4ccc(C(F)(F)F)nn4)CC3)c2[C@@H](C(F)(F)F)[C@@H]1O` (racemic) [Example 6, trans-5-Hydroxy-4-(trifluoromethyl)-3-{1-[6-(trifluoromethyl)pyridazin-3-yl]piperidin-4-yl}-1,4,5,7-tetrahydro-6H-pyrazolo[3,4-b]pyridin-6-one]: the half-maximal effective concentration (EC50) is 2.22 µM.

Take `O=C1Nc2[nH]nc(C3CCN(c4ccc(C(F)(F)F)nn4)CC3)c2[C@@H](C(F)(F)F)[C@H]1O` (racemic) [Example 7, cis-5-Hydroxy-4-(trifluoromethyl)-3-{1-[6-(trifluoromethyl)pyridazin-3-yl]piperidin-4-yl}-1,4,5,7-tetrahydro-6H-pyrazolo[3,4-b]pyridin-6-one]: the EC50 was 0.11 µM.

Consider `CC(C)c1nc(N2CCC(c3n[nH]c4c3[C@@H](C(F)(F)F)[C@H](O)C(=O)N4)CC2)cc(C(F)(F)F)n1` (racemic) [Example 8, trans-5-Hydroxy-3-{1-[2-isopropyl-6-(trifluoromethyl)pyrimidin-4-yl]piperidin-4-yl}-4-(trifluoromethyl)-1,4,5,7-tetrahydro-6H-pyrazolo[3,4-b]pyridin-6-one], for which the concentration giving a half-maximal response (EC50) came out at 0.63 µM.

As for `CC(C)c1nc(N2CCC(c3n[nH]c4c3[C@@H](C(F)(F)F)[C@@H](O)C(=O)N4)CC2)cc(C(F)(F)F)n1` (racemic) [Example 9, cis-5-Hydroxy-3-{1-[2-isopropyl-6-(trifluoromethyl)pyrimidin-4-yl]piperidin-4-yl}-4-(trifluoromethyl)-1,4,5,7-tetrahydro-6H-pyrazolo[3,4-b]pyridin-6-one], the concentration giving a half-maximal response (EC50) turned out to be 0.027 µM.

As for `O=C1Nc2[nH]nc(C3CCN(c4cnc(C(F)(F)F)cn4)CC3)c2[C@@H](C(F)(F)F)[C@@H]1O` (racemic) [Example 10, trans-5-Hydroxy-4-(trifluoromethyl)-3-{1-[5-(trifluoromethyl)pyrazin-2-yl]piperidin-4-yl}-1,4,5,7-tetrahydro-6H-pyrazolo[3,4-b]pyridin-6-one], the EC50 was determined as 0.34 µM.

As to `O=C1Nc2[nH]nc(C3CCN(c4cnc(C(F)(F)F)cn4)CC3)c2[C@@H](C(F)(F)F)[C@H]1O` (racemic) [Example 11, cis-5-Hydroxy-4-(trifluoromethyl)-3-{l-[5-(trifluoromethyl)pyrazin-2-yl]piperidin-4-yl}-1,4,5,7-tetrahydro-6H-pyrazolo[3,4-b]pyridin-6-one], the EC50 was 0.029 µM.

With `O=C1Nc2[nH]nc(C3CCN(c4cnc(C(F)(F)F)nc4)CC3)c2[C@@H](C(F)(F)F)[C@H]1O` (racemic) [Example 12, cis-5-Hydroxy-4-(trifluoromethyl)-3-{1-[2-(trifluoromethyl)pyrimidin-5-yl]piperidin-4-yl}-1,4,5,7-tetrahydro-6H-pyrazolo[3,4-b]pyridin-6-one], the 50% effective concentration (EC50) was found to be 0.035 µM.

As for `N#Cc1cnc(N2CCC(c3n[nH]c4c3[C@@H](C(F)(F)F)[C@@H](O)C(=O)N4)CC2)cc1C(F)(F)F` (racemic) [Example 13, 6-{4-[cis-5-Hydroxy-6-oxo-4-(trifluoromethyl)-4,5,6,7-tetrahydro-1H-pyrazolo[3,4-b]pyridin-3-yl]piperidin-1-yl}-4-(trifluoromethyl)pyridine-3-carbonitrile], the 50% effective concentration (EC50) turned out to be 0.037 µM.

Regarding `O=C1Nc2[nH]nc(C3CCN(c4ncc(C(F)(F)F)cc4Cl)CC3)c2[C@@H](C(F)(F)F)[C@H]1O` (racemic) [Example 14, cis-3-{1-[3-Chloro-5-(trifluoromethyl)pyridin-2-yl]piperidin-4-yl}-5-hydroxy-4-(trifluoromethyl)-1,4,5,7-tetrahydro-6H-pyrazolo[3,4-b]pyridin-6-one], the 50% effective concentration (EC50) was 0.38 µM.

Turning to `O=C1Nc2[nH]nc(C3CCN(c4nc(C(F)(F)F)cs4)CC3)c2[C@@H](C(F)(F)F)[C@H]1O` (racemic) [Example 15, cis-5-Hydroxy-4-(trifluoromethyl)-3-{1-[4-(trifluoromethyl)-1,3-thiazol-2-yl]piperidin-4-yl}-1,4,5,7-tetrahydro-6H-pyrazolo[3,4-b]pyridin-6-one], the EC50 was 0.29 µM.

For `O=C1Nc2[nH]nc(C3CCN(c4cccc(C(F)(F)F)n4)CC3)c2[C@@H](C(F)(F)F)[C@H]1O` (racemic) [Example 16, cis-5-Hydroxy-4-(trifluoromethyl)-3-{1-[6-(trifluoromethyl)pyridin-2-yl]piperidin-4-yl}-1,4,5,7-tetrahydro-6H-pyrazolo[3,4-b]pyridin-6-one], the EC50 came to 0.062 µM.

As for `O=C1Nc2[nH]nc(C3CCN(c4cc(C(F)(F)F)ccn4)CC3)c2[C@@H](C(F)(F)F)[C@H]1O` (racemic) [Example 17, cis-5-Hydroxy-4-(trifluoromethyl)-3-{1-[4-(trifluoromethyl)pyridin-2-yl]piperidin-4-yl}-1,4,5,7-tetrahydro-6H-pyrazolo[3,4-b]pyridin-6-one], the EC50 amounted to 0.031 µM.

With `O=C1Nc2[nH]nc(C3CCN(c4cc(C(=O)N5CCCCC5)c(C(F)(F)F)cn4)CC3)c2[C@@H](C(F)(F)F)[C@H]1O` (racemic) [Example 33, cis-5-Hydroxy-3-{1-[4-(piperidin-1-ylcarbonyl)-5-(trifluoromethyl)pyridin-2-yl]piperidin-4-yl}-4-(trifluoromethyl)-1,4,5,7-tetrahydro-6H-pyrazolo[3,4-b]pyridin-6-one], the 50% effective concentration (EC50) stood at 0.057 µM.

For the compound `O=C1Nc2[nH]nc(C3CCN(c4ccc(OC(F)F)cn4)CC3)c2[C@@H](C(F)(F)F)[C@H]1O` (racemic) [Example 37, cis-3-{1-[5-(Difluoromethoxy)pyridin-2-yl]piperidin-4-yl}-5-hydroxy-4-(trifluoromethyl)-1,4,5,7-tetrahydro-6H-pyrazolo[3,4-b]pyridin-6-one], the concentration for a half-maximal effect (EC50) worked out at 0.094 µM.

Consider `O=C1Nc2[nH]nc(C3CCN(c4ccc(C(F)(F)F)nn4)CC3)c2[C@@H](C(F)(F)F)[C@H]1O` (single isomer, unassigned) [Example 19, (+)-cis-5-Hydroxy-4-(trifluoromethyl)-3-{1-[6-(trifluoromethyl)pyridazin-3-yl]piperidin-4-yl}-1,4,5,7-tetrahydro-6H-pyrazolo[3,4-b]pyridin-6-one], for which the EC50 amounted to 0.035 µM.

In the case of `O=C1Nc2[nH]nc(C3CCN(c4ccc(C(F)(F)F)nc4)CC3)c2[C@@H](C(F)(F)F)[C@H]1O` (single isomer, unassigned) [Example 23, (+)-cis-5-Hydroxy-4-(trifluoromethyl)-3-{1-[6-(trifluoromethyl)pyridin-3-yl]piperidin-4-yl}-1,4,5,7-tetrahydro-6H-pyrazolo[3,4-b]pyridin-6-one], the EC50 came to 0.008 µM.

Consider `N#Cc1ncc(N2CCC(c3n[nH]c4c3[C@@H](C(F)(F)F)[C@@H](O)C(=O)N4)CC2)cc1F` (single isomer, unassigned) [Example 24, (+)-3-Fluoro-5-{4-[cis-5-hydroxy-6-oxo-4-(trifluoromethyl)-4,5,6,7-tetrahydro-1H-pyrazolo[3,4-b]pyridin-3-yl]piperidin-1-yl}pyridine-2-carbonitrile], for which the EC50 is 0.03 µM.
